Laboratory results reported in patent publication US7022830B2, “Hepatitis C virus codon optimized non-structural NS3/4A fusion gene” (priority 2000, dated 2006).

Key:
[1] = system: rNS3; assay: ribavirin dose finding, rNS3-specific IgG by EIA (FIG. 8, TABLE 17); assay type: in vivo, mice
Experimental: The levels of antibody to the antigen were then determined by EIA.
A second set of experiments was also performed. […] The mice were bled at week six and rNS3-specific IgG levels were determined by EIA as described previously.

[2] = system: NS3; assay: NS3-specific IgG subclasses by EIA after primary and booster injection (TABLE 18); assay type: in vivo, mice; settings: 10 μg rNS3 with 0.1 or 1.0 mg ribavirin at weeks 0 and 4; bled week six
Experimental: The mice were bled at week six and NS3-specific IgG subclasses were determined by EIA as described previously.

[3] = system: inositol mono-phosphate (IMP) dehydrogenase (IMPDH); settings: cited from earlier work
[4] = system: NS3-specific CD4+ T cell proliferation; assay: in vitro recall assay, CD4+ T cell proliferation of lymph node cells, [3H] thymidine; assay type: in vivo, mice; settings: 100 μg rNS3 mixed with 1 mg ribavirin s.c.; ten days; 96 h culture (FIG. 9)
Experimental: This assay can be used with any ribavirin derivative or combinations of ribavirin derivatives to determine the extent that a particular vaccine formulation modulates a cellular immune response. […] The mice were sacrificed ten days post-immunization and their lymph nodes were harvested and drained. In vitro recall assays were then performed. (See e.g., Hultgren et al., J Gen Virol. 79:2381-91 (1998) and Hultgren et al., Clin. Diagn. Lab. Immunol. 4:630-632 (1997)). The amount of CD4^+ T cell proliferation was determined at 96 h of culture by the incorporation of [^3H] thymidine.

[5] = system: HBsAg; assay: EIA end point antibody titer to HBsAg, Engerix vaccine with or without ribavirin (TABLE 19); assay type: in vivo, mice; settings: 1 mg ribavirin with 2 μg vaccine i.p.; booster week four, bled week six
Excerpt: (Engerix, SKB). […] A booster containing the same mixture was given on week four and all mice were bled on week six.

NC(=O)c1ncn([C@@H]2O[C@H](CO)[C@@H](O)[C@H]2O)n1 [ribavirin, 1-β-D-ribofuranosyl-1,2,4-triazole-3-carboxamide]
effect on antibody levels ([1]; higher doses (1-10 mg) ribavirin with 20 μg rNS3, week three (FIG. 8)): enhance antibody levels at week three | effect on antibody levels ([1]; low doses (<1 mg) ribavirin with 20 μg rNS3, week one (FIG. 8)): enhance antibody levels at week one | effect on antibody levels ([1]; low doses (<1 mg) ribavirin with 20 μg rNS3, week three (FIG. 8)): not at week three | effect on IgG subclass response [2]: does not change the IgG subclass response | mode of action on IMPDH [3]: competitive inhibitor | T cell proliferative response versus 100 μg rNS3 in PBS [4]: much greater T cell proliferative response | effect on antibody response to Engerix vaccine [5]: enhanced the response
